Test system: Bastardhunden
Assay: Haemodynamic study of antianginal and antihypertensive action in anaesthetised mongrel dogs
Format: in vivo
Settings: dogs under pentobarbital or urethane-chloralose anaesthesia
Experimental: Die Untersuchungen über die antianginöse und antihypertensive Wirkung der Verbindungen der Formel I wurden an Bastardhunden beiderlei Geschlechts in Pentobarbital-Narkose (30 bis 40 mg/ kg i.v.) oder in Urethan-Chloralose-Narkose (3 ml/kg Urethan-Chloralose-Gemisch i.v. = 20 mg/kg Chloralose und 250 mg/kg Urethan) durchgeführt. Die Beatmung der Tiere erfolgte mit einem Bird-Mark-7-Respirator. Der endexpiratorische Kohlensäuregehalt (gemessen mit einem Ultrarotabsorptionsschreiber) betrug zwischen 4,5 und 5 Vol.%. Während des gesamten Versuchs erhielten die Tiere mit Pentobarbital-Narkose eine Dauerinfusion von Pentobarbital i.v. = 4 mg(in 6 ml)/kg/h, um eine konstante Narkosetiefe zu gewährleisten; die Tiere mit Urethan-Chloralose-Narkose erhielten keine Dauerinfusion. Die Infusion wurde durch die Vena cephalica gegeben. Nach der Präparation des Versuchstieres wurde ca. 1 Stunde gewartet, bis sich alle haemodynamischen Parameter eingestellt hatten (steady state). Danach wurde mit dem eigentlichen Versuch begonnen.
Zur Bestimmung des mittleren Blutdrucks (=BDm) wurde der systolische und diastolische Blutdruck peripher in der Arteria femora1is über einen Statham-Druckaufnehmer gemessen. Ein über die Arteria carotis in den linken Ventrikel geschobener Millartip-Katheter lieferte das Signal für den linksventrikulären enddiastolischen Druck (=LVEDP) und die Herzfrequenz (=HF). Mit einem zweiten, über die Venajugularis eingeschobenen Tip-Katheter wurde der mittlere Blutdruck (=PAP) in der Arteria pulmonalis erfaßt.

Structure (SMILES) | BDm Δ (mittlerer peripherer Blutdruck) (Dosis 1 mg/kg) [mmHg] | HF Δ (Herzfrequenz) (Dosis 1 mg/kg) | LVEDP Δ (linksventrikulärer enddiastolischer Druck) (Dosis 1 mg/kg) | PAP Δ (mittlerer Pulmonalarteriendruck) (Dosis 1 mg/kg) | other results
CCCNC(=O)c1nonc1C(=O)NCCC [CH3CH2CH2NH- / CH3CH2CH2NH-, 1,2,5-Oxadiazol-3,4-bis-(carbonsäurepropylamid)] | -35 | 0 b/min | -0,5 mmHg | +1,1 mmHg | –
CNC(=O)c1nonc1C(=O)NC [H2CNH- / H3CNH-, l,2,5-0xadiazol-3,4-bis-(carbonsäuremethylamid)] | – | – | – | – | BDm Δ (mittlerer peripherer Blutdruck) (Dosis 0,5 mg/kg): -35 mmHg; HF Δ (Herzfrequenz) (Dosis 0,5 mg/kg): +20 b/min; LVEDP Δ (linksventrikulärer enddiastolischer Druck) (Dosis 0,5 mg/kg): -3,5 mmHg; PAP Δ (mittlerer Pulmonalarteriendruck) (Dosis 0,5 mg/kg): -3,0 mmHg
CCOC(=O)c1nonc1C(=O)NC(C)C [H5C2O- / [drawing] (r5)] | – | – | – | – | BDm Δ (mittlerer peripherer Blutdruck) (Dosis 3 mg/kg): -35 mmHg; LVEDP Δ (linksventrikulärer enddiastolischer Druck) (Dosis 3 mg/kg): -2,5 mmHg; PAP Δ (mittlerer Pulmonalarteriendruck) (Dosis 3 mg/kg): -2,0 mmHg
CCOC(=O)c1nonc1C(=O)NCCCN1CCN(c2ccccc2OC)CC1 [H5C2O- / [drawing] (r7)] | -30 | – | -2,5 mmHg | -1 mmHg | –
O=C(NCCO)c1nonc1C(=O)NCCO [HOCH2CH2NH- / HOCH2CH2NH-, 1,2,5-Oxadiazol-3,4-bis-(carbonsäure-ethanolamid)] | -30 | 0 b/min | -1 mmHg | -2,0 mmHg | –
O=C(NCc1cccnc1)c1nonc1C(=O)NCc1cccnc1 [[drawing] / [drawing] (r2)] | – | – | – | – | BDm Δ (mittlerer peripherer Blutdruck) (Dosis 3 mg/kg): -45 mmHg; LVEDP Δ (linksventrikulärer enddiastolischer Druck) (Dosis 3 mg/kg): -8,5 mmHg; PAP Δ (mittlerer Pulmonalarteriendruck) (Dosis 3 mg/kg): -2,4 mmHg
O=C(NC1CCCCC1)c1nonc1C(=O)NC1CCCCC1 [[drawing] / [drawing] (r3)] | -55 | +15 b/min | -10 mmHg | -2,7 mmHg | –

— patent EP0075141A1, “1,2,5-Oxadiazole-3,4-dicarboxylic-acid derivatives, process for their production, their use and pharmaceutical preparations containing them” (CASSELLA Aktiengesellschaft, priority 1981, dated 1983)
